The experiment concerns the target T1, Glucocorticoid receptor (Homo sapiens, UniProt P04150).
T1 sequence (P04150 whole entry): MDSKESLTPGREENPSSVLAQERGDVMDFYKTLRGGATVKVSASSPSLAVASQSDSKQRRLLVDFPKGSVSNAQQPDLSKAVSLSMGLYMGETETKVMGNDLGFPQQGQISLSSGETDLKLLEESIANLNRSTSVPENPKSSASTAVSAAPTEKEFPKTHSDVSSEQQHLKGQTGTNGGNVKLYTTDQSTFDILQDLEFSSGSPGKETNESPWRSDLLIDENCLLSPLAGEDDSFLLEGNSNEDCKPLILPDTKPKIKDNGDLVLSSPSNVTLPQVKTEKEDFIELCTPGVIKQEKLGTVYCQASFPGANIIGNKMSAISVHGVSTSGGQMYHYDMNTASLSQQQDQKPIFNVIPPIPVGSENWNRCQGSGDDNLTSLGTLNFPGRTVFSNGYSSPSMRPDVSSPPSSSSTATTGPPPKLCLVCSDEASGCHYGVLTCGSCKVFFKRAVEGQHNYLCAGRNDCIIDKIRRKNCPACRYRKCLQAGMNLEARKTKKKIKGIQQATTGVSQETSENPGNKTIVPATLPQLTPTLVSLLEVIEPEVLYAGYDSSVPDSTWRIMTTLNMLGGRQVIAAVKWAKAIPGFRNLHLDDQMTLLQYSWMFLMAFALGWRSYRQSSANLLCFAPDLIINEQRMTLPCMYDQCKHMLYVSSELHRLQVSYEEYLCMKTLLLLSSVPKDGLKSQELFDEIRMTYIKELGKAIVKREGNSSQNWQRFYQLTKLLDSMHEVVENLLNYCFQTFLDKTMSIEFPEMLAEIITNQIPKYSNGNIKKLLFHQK
Description: GR Binding Assay. On the procedure:
Binding of test compounds to the glucocorticoid receptor (GR) is determined using a fluorescence polarisation (FP) assay utilising a recombinant ligand binding domain (LBD) of GR. The test compounds are assessed by their ability to displace a fluorescently tagged ligand and detection of the resulting decrease in fluorescence polarisation.

What is called Ki is a dissociation constant, usually derived from enzyme kinetics or from competition with a known ligand. Consider `Cc1cc2c(cnn2-c2ccc(F)cc2)cc1[C@@]12CN(S(=O)(=O)c3cnn(C)n3)C[C@@H]1[C@H]2C(=O)N1CCC1` [US20250115583, Example 59], for which the affinity corresponds to a Ki of 360 nM.
Molecule `Cc1cc2c(cnn2-c2ccc(F)cc2)cc1[C@@]12CN(C(=O)c3nn(C)cc3Cl)C[C@@H]1[C@H]2c1ccccc1` [US20250115583, Example 178] showed a Ki of 19 nM.

The values are drawn from BindingDB's records for patent US20250115583 (Corcept Therapeutics, 2025).
